This note sets out measurements from PubChem BioAssay AID1919005 (Molecular Pharmacology Branch, DTP, NCI, 2023).

The subject of the assay is 855422-203-R-J1-PDC complex spheroid growth. Kind of assay: Anticancer human tumor 855422-203-R-J1-PDC patient-derived bladder carcinoma cell line growth inhibition [AhR]. Conditions: for viability, T/C: stronger effect = lower value. An excerpt:
Multicellular complex tumor spheroid response to aryl hydrocarbon receptor antagonists in combination with a variety of drugs and investigational agents in selected tumor cell lines
The current study was undertaken to assess response to aryl hydrocarbon receptor antagonists in combination with standard-of-care drugs and investigational agents in solid tumor complex spheroid models. Complex spheroids include a stromal component modeled by human endothelial cells (HUVEC) and fibroblasts modeled by human mesenchymal stem cells (MSCs). The concentration ranges selected for each drug and investigational agent were based upon clinically achievable concentrations if the clinical Cmax of the agent was known.
Compounds. The drugs and investigational agents: BAY 2416964 (NSC825713), GNF351 (NSC835774), CH-223191 (NSC835775), CPI-455 (NSC825282), aza-TdCyd (NSC777586), decitabine (NSC127716), belinostat (NSC758774), entinostat (NSC756642), pevonedistat (NSC761192), tazemetostat (NSC777109), talazoparib (NSC765396), olaparib (NSC753686), selinexor (NSC780203), nedisertib (M3814, NSC802822), bortezomib (NSC756655), venetoclax (NSC766270), doxorubicin (NSC123127), elimusertib (BAY189344, NSC800525), ceralasertib (AZD6738, NSC777638), TAK-243 (NSC785004), alisertib (NSC759677), etoposide (NSC141540), topotecan (NSC609699), eribulin (NSC707389), gemcitabine (NSC613327), carboplatin (NSC241240), cisplatin (NSC119875), and SN-38 (NSC673596) were obtained from the National Cancer Institute (NCI) Developmental Therapeutics Program Chemical Repository (32). The FDA-approved anticancer drug set is available from the Developmental Therapeutics Program at https://dtp.cancer.gov/organization/dscb/obtaining/available plates.htm. […] The stock solutions were prepared in dimethyl sulfoxide (DMSO, Sigma-Aldrich, St. Louis, MO, cat. D2650), except for the platinum compounds which were prepared in saline (Quality Biological, Gaithersburg, MD, cat. 114-055-101), at 800-fold the tested concentration and stored at -70 degrees C prior to their use. All drugs and investigational agents were tested over a range starting from a high concentration at or near the clinical Cmax and decreasing in half-log increments. If the clinical Cmax for an agent had not been determined, the highest concentration tested was 10 microM (Table 1).
Cell Culture. All cells were maintained in an incubator at 37 degrees C and 5% CO2 with 95% humidity. The PDC lines were cultured according to standard operating procedures established by the NCI PDMR (https://pdmr.cancer.gov). Briefly, all PDCs were thawed and cultured in Matrigel-coated flasks prepared with a working solution of 1X Ham's F-12 nutrient mix, without supplementation (Invitrogen, Waltham, MA, cat. 11765054), 100 U/mL penicillin-streptomycin (Invitrogen, cat. 15140122), and 2.5% Matrigel (Corning Inc., Corning, NY, cat. 354248) for the first three passages. All PDCs were cultured in complete DMEM/F-12 media containing advanced DMEM/F-12 (Invitrogen, cat. 12634028), 4.9% defined fetal bovine serum, heat inactivated (HyClone Laboratories Inc., Logan, UT, cat. SH30070.03HI), 389 ng/mL hydrocortisone (Sigma-Aldrich, cat. H4001), 9.7 ng/mL human EGF recombinant protein (Invitrogen, cat. PHG0313), 23.4 microg/mL adenine (Sigma-Aldrich, cat. A2786), 97.3 U/mL penicillin-streptomycin (Invitrogen, cat. 15140122), 1.9 mM L-glutamine (Invitrogen, cat. 25030081), and 9.7 microM Y-27632 dihydrochloride (Tocris Bioscience, Bristol, United Kingdom, cat. 1254). The PDCs were cultured in complete DMEM/F12 media without 10 microM Y-27632 dihydrochloride for at least two passages prior to the screen. The established cell lines NCI-H1341 and […] were cultured in DMEM/F-12, HEPES (Invitrogen, cat. 11330032), 5% defined fetal bovine serum (HyClone Laboratories Inc., cat. SH30070.03), ITS premix universal culture supplement [insulin (5 microg/mL), transferrin (5 microg/mL), and selenious acid (5 ng/mL)] […]

pIC50: −log10 of the molar value. Where “and” joins values, the source holds several entries; their conditions need not be identical. Identical values can stand only once. Some results are limits rather than exact numbers.
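Also: spheroids exposed to agents for seven days before readout.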
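For viability, T/C in this document: percent of DMSO vehicle control luminescence viability.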

For `CC(C)c1c(-c2ccccc2)nc2c(C#N)c[nH]n2c1=O`, the viability, T/C by setting is: (compound 0.0316 µM) 105% and 98.6% and 111%; (compound 0.1 µM) 97.8% and 96% and 112%; (compound 0.316 µM) 111% and 97% and 96.5%; (compound 1 µM) 99.3% and 89.9% and 105%; (compound 3.16 µM) 105% and 98.1% and 98.8%; (compound 10 µM) 77.9% and 92% and 96.4%. Moreover, where the note is “curve of compound”, the pIC50 is < 5.00.

For `CC(CO)NC(=O)c1cc(-c2ccc(Cl)cc2)nn(-c2cnn(C)c2)c1=O` (stereo not given), the viability, T/C runs as follows: (compound 0.1 µM) 92.2% [middle of 20 runs]; (compound 1 µM) 94.9% [middle of 21 runs]; (compound 3.16 µM) 96.8% [middle of 19 runs]; (compound 10 µM) 91.4% [middle of 19 runs]. The pIC50 (compound alone, run of 05/31/2022) was < 5.00.

Take `CC1COCCN1c1cc(C2(S(C)(=N)=O)CC2)nc(-c2ccnc3[nH]ccc23)n1` (stereo not given): the viability, T/C runs as follows: (compound 0.0316 µM) 93.4% and 101% and 98.8%; (compound 0.1 µM) 106% and 102% and 113%; (compound 0.316 µM) 99.9% and 101% and 88.2%; (compound 1 µM) 108% and 106% and 115%; (compound 3.16 µM) 125% and 124% and 123%; (compound 10 µM) 24.9% and 56.9% and 59.1%. The negative logarithm of the IC50 (pIC50) (curve of compound) was 5.15 and < 5.00.

On to `COc1ccc([C@@H](O)c2cc(-c3ncnc4cc(N5CCOCC5)ccc34)c(F)cc2Cl)nn1`, for which the viability, T/C is 115% and 108% (2×) (compound 0.0316 µM); 97.6% and 101% and 89.4% (compound 0.1 µM); 102% and 105% and 88.9% (compound 0.316 µM); 89.7% and 98.2% and 82% (compound 1 µM); 79% and 89.1% and 76.9% (compound 3.16 µM); 52.3% and 71.5% and 57.8% (compound 10 µM). In addition, where the note is “curve of compound”, the pIC50 is < 5.00.

In the case of `Cc1ccccc1N=Nc1ccc(NC(=O)c2ccnn2C)c(C)c1`, the viability, T/C reads like this: (compound 0.1 µM) 98.6% [middle of 20 runs]; (compound 0.316 µM) 98.5% [middle of 20 runs]; (compound 1 µM) 101% [middle of 20 runs]; (compound 3.16 µM) 94.4% [middle of 20 runs]; (compound 10 µM) 80.9% [middle of 20 runs]. Also, the negative logarithm of the IC50 (pIC50) (compound alone, run of 06/14/2022) was < 5.00.

Regarding `Cc1cncc(-c2nc(NCCc3c[nH]c4ccccc34)c3ncn(C(C)C)c3n2)c1`, the viability, T/C was 92.2% [middle of 19 runs] (compound 0.1 µM) and 86.3% [middle of 20 runs] (compound 1 µM). For the same compound, the 50% inhibitory concentration (IC50) (compound alone, run of 06/06/2022) is 5.43 µM [middle of 22 runs].

Take `COc1cccc2c1C(=O)c1c(O)c3c(c(O)c1C2=O)CC(O)(C(=O)CO)CC3OC1CC(N)C(O)C(C)O1` (stereo not given) + CC(CO)NC(=O)c1cc(-c2ccc(Cl)cc2)nn(-c2cnn(C)c2)c1=O: the pIC50 is > 7.50 (curve of first compound, second compound 0.1 µM); > 7.50 (curve of first compound, second compound 0.316 µM); > 7.50 (curve of first compound, second compound 1 µM); > 7.50 (curve of first compound, second compound 3.16 µM); > 7.50 (curve of first compound, second compound 10 µM). Moreover, the viability, T/C is, setting by setting: (second compound 0.1 µM, first compound 0.0316 µM) 34.3%; (second compound 0.1 µM, first compound 0.1 µM) 21.9%; (second compound 0.1 µM, first compound 0.316 µM) 4.3%; (second compound 0.1 µM, first compound 1 µM) 1.57%; (second compound 0.1 µM, first compound 3.16 µM) 1.7%; (second compound 0.1 µM, first compound 10 µM) 2.88%. Besides, the viability, T/C (second compound 0.316 µM, first compound 0.0316 µM) was 31.6%; the viability, T/C (second compound 0.316 µM, first compound 0.1 µM) was 21.3%; the viability, T/C (second compound 0.316 µM, first compound 0.316 µM) was 3.51%; the viability, T/C (second compound 0.316 µM, first compound 1 µM) was 1.36%; the viability, T/C (second compound 0.316 µM, first compound 3.16 µM) was 1.02%; the viability, T/C (second compound 0.316 µM, first compound 10 µM) is 2.82%. Also, the viability, T/C was 37.7% (second compound 1 µM, first compound 0.0316 µM); 21.3% (second compound 1 µM, first compound 0.1 µM); 3.4% (second compound 1 µM, first compound 0.316 µM); 1.68% (second compound 1 µM, first compound 1 µM); 0.81% (second compound 1 µM, first compound 3.16 µM); 3.37% (second compound 1 µM, first compound 10 µM). Besides, the viability, T/C (second compound 3.16 µM, first compound 0.0316 µM) is 32%; the viability, T/C (second compound 3.16 µM, first compound 0.1 µM) was 17.5%; the viability, T/C (second compound 3.16 µM, first compound 0.316 µM) was 2.92%; the viability, T/C (second compound 3.16 µM, first compound 1 µM) was 1.21%; the viability, T/C (second compound 3.16 µM, first compound 3.16 µM) was 0.84%; the viability, T/C (second compound 3.16 µM, first compound 10 µM) is 4.27%. Moreover, the viability, T/C runs as follows: (second compound 10 µM, first compound 0.0316 µM) 32.9%; (second compound 10 µM, first compound 0.1 µM) 17.8%; (second compound 10 µM, first compound 0.316 µM) 2.64%; (second compound 10 µM, first compound 1 µM) 0.53%; (second compound 10 µM, first compound 3.16 µM) 0.94%; (second compound 10 µM, first compound 10 µM) 5.77%.

What is called viability, T/C is the ratio of treated to control. The term pIC50 denotes the negative decadic logarithm of the IC50, by convention in mol/L. What is called IC50 is the point on the concentration scale where inhibition reaches its midpoint.
